These results are taken from article PMC9224512, “New Insights into the Determinants of Specificity in Human Type I Arginase: Generation of a Mutant That Is Only Active with Agmatine as Substrate” (International Journal of Molecular Sciences, 2022).

Assay [1] addresses T1, WT-arginase (human arginase type I) (Homo sapiens, UniProt P05089).
T1 construct: made in house; host or cells: E. coli JM109
T1 sequence (P05089 1-322): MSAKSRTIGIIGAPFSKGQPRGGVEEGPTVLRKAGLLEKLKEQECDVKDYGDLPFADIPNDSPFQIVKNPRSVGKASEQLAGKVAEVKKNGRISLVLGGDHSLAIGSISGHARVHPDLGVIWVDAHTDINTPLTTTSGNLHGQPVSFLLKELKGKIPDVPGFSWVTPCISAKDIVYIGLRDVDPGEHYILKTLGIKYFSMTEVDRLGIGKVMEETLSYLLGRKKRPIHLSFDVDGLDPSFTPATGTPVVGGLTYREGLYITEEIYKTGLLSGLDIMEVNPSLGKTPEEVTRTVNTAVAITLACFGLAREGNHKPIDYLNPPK
The assay is described as follows: Kinetic and inhibition studies, wild-type human arginase type I. It is filed as biochemical. On the procedure:
(§1) Bacterial cultures were grown with shaking at 37 °C in Luria Broth media, in the presence of ampicillin (100 μg/mL). The wild-type and mutant human liver arginase cDNAs were directionally cloned into the pBluescript II KS(+) expression vector and then expressed in E. coli JM109, following induction with 1 mM isopropyl β-D-thiogalactopyranoside. The bacterial cells were disrupted by sonication on ice (5 × 30 s pulses), centrifuged for 20 min at 12,000× g, and the obtained supernatant was precipitated with ammonium sulfate (60% saturation). The pellet, collected by centrifugation at 12,000× g for 10 min, was re-suspended in buffer 5 mM Tris–HCl (pH 7.5) containing 2 mM MnCl2 and dialyzed for 6 h at 4 °C against the same buffer. After incubation with 5 mM MnCl2 for 10 min at 60 °C, the enzyme variants were purified as previously described. The purity of the enzymes was evaluated by SDS–PAGE stained by Coomassie blue and immunodetection using an anti- rat arginase I antibody.
(§2) All assays were initiated by adding the enzyme to a previously equilibrated buffer with the substrate in solution (the concentrations of used substrates were between 0.2–3 fold the Km). Urea was determined by a colorimetric method with α-isonitrosopropiophenone. The protein concentrations were determined by the Bradford’s method, with bovine serum albumin as standard. Initial velocity and enzymatic inhibition experiments were performed in duplicate and repeated three times. The inhibitory patterns were initially determined by double reciprocal plots and re-plots of intercepts and slopes versus inhibitor concentrations. […] Velocities are expressed as μmol of urea/10 min.

The target of assay [2] is T2, human arginase type I N130D (Homo sapiens, UniProt P05089, N130D).
T2 sequence (P05089 1-322 N130D): T1 sequence (P05089 1-322) with N130D
The assay is described as follows: Kinetic and inhibition studies, N130D mutant. It counts as biochemical. On the procedure:
as §1
(§3) The single, double, triple, and chimera variants of human arginase type I were obtained by PCR, using the QuickChange site-directed mutagenesis kit (Stratagene, La Jolla, CA, USA); the plasmid pBluescript II KS(+) containing the human liver arginase cDNA was used as template. To obtain the chimeric species of human arginase type I, serial mutations were made in each loop to be modified, using as template DNA the wild-type arginase gene or the previous done mutation, subcloned in the plasmid pBluescript II KS (+). Specifically, the residues present in the arginase structure were replaced by those corresponding to the agmatinase sequence of E. coli.
as §2

Assay [3] concerns the target T3, human arginase type I S137C (Homo sapiens, UniProt P05089, S137C).
T3 sequence (P05089 1-322 S137C): T1 sequence (P05089 1-322) with S137C
As to the kind of experiment: Kinetic and inhibition studies, S137C mutant. It is filed as biochemical. The procedure: as §1, §3, §2

Assay [4] has as its target T4, type I human arginase D181T/V182E (Homo sapiens, UniProt P05089, D181T/V182E).
T4 construct: made in house; host or cells: E. coli JM109
T4 sequence (P05089 1-322 D181T/V182E): T1 sequence (P05089 1-322) with D181T, V182E
As to the kind of experiment: Kinetic and inhibition studies, D181T/V182E double mutant. Particulars: substrate arginine. It counts as biochemical. The procedure:
as §1, §3, §2

Assay [5] concerns the target single, double and triple mutants (N130D, S137C, N139D) of human arginase type I. The assay is described as follows: Kinetic properties stated for all loop A mutants together. It counts as biochemical. Particulars: all mutants of Table 1; substrate arginine; read-out: Ki for competitive inhibition by the ornithine product. On the procedure: as §1
The single, double, triple, and chimera variants of human arginase type I were obtained by PCR, using the QuickChange site-directed mutagenesis kit (Stratagene, La Jolla, CA, USA); the plasmid pBluescript II KS(+) containing the human liver arginase cDNA was used as template. […]

Assay [6] deals with arginase N130A. Details: method as in PMID 19093830. Conditions: substrate arginine; cited from earlier work.
In assay [7] the test system is arginase N130Y. Details: method as in PMID 19093830. Conditions: substrate arginine; cited from earlier work.
The subject of assay [8] is human arginase D183N. Details: method as in PMID 19093830. Conditions: substrate arginine; cited from earlier work.
Where [9] appears, read: substrate = labelled compound, pH 9.5, 2 mM Mn2+.

Structures are written as SMILES. Changes are numbered by the printed parent chain. Values joined by “and” are separate entries in the source; they are usually repeats but may differ in a detail not shown here. Identical values can stand only once.

The Ki is a measure of affinity in units of concentration, obtained from inhibition or displacement. For `NCCC[C@H](N)C(=O)O` [Ornithine, L-ornithine], the “Inhibition type” value is listed as “Competitive” in assay [1] (substrate arginine) and “mixed-type inhibition” in assay [4]. Moreover, the “Kis (Ki)” value in assay [1] (substrate arginine, pH 9.5) worked out at 2 ± 0.5 mM; in assay [4], 71 ± 12 mM. In addition, the Ki in assay [2] (read-out: Ki^orn) is 7.8 mM; in assay [3] (read-out: Ki^orn), 7.6 mM; in assay [5], about 7 mM.
As usually defined, the Km is the concentration of substrate that gives half-maximal velocity. By kcat is commonly meant the number of substrate molecules converted per active site and unit of time at saturation. For `N=C(N)NCCC[C@H](N)C(=O)O` [Arginine, L-arginine], the Km in assay [1] (setting [9]) worked out at 1.5 mM; in assay [2] (setting [9]), 13.3 mM; in assay [3] (setting [9]), 3.2 mM; in assay [4] (pH 9.5, 2 mM Mn2+), 32 ± 5 mM. In addition, the kcat is 190 s⁻¹ and 190 ± 10 s⁻¹ in assay [1] (substrate = labelled compound, pH 9.5, 2 mM Mn2+, n/a = no activity with the substrate); 33 s⁻¹ in assay [2] (setting [9]); 75 s⁻¹ in assay [3] (substrate = labelled compound); 188 ± 10 s⁻¹ in assay [4]. For the same compound, the “catalytic activity relative to wild type” value in assay [2] (substrate arginine) was 17%. Also, the “kcat/Km ratio, times less than wild-type enzyme” value in assay [2] (substrate arginine) is 50 times. For the same compound, the “increase of Km for arginine” value in assay [6] is given as 50 fold. The reduction of kcat in assay [6] is given as 37%. Further, the decrease in kcat result in assay [7] is recorded as “approximately 20 times”. Also, the “increase in Km” value in assay [8] is given as 27 fold. For the same compound, in assay [8], the reduction in kcat is 12%.
